Source: patent publication US20240417411A1, “COMPOUNDS AND METHODS FOR TREATMENT OF VIRAL INFECTIONS” (priority 2023, published 2024)
Where two headings read alike, the source gives them in different places.

Experiments:
[1] = tested on: Caco-2 cells (clone C2BBe1); conditions: human, Caco-2
in vitro [2] = format: in vitro ADME; conditions: human, s9, pH 7.4
Procedure, shortened: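 Test compounds at 2 μM final were incubated in a GI S9 reaction mixture, reactions being started by substrate addition. Diluted supernatants were quantified by LC/MS on a Q-Exactive using analyte/internal standard peak area ratios, with 0.1% formic acid water/acetonitrile gradient elution and 5 ppm mass tolerance.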

RSV-Luc5 = assay: microbe, parasite or virus in culture; format: cell-based; conditions: human respiratory syncytial virus, NHBE, 72 h, read-out: RSV NHBE EC50 (nM)
SARS-CoV2-NLuc = assay: microbe, parasite or virus in culture; format: cell-based, SARS Coronavirus 2; conditions: Severe acute respiratory syndrome coronavirus 2, 48 h, read-out: SARS-CoV2 EC50 (nM)
in vitro [3] = format: cell-based; conditions: human
Procedure, shortened: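 Uninfected MT4 cells cultured with compound 4–5 days at 37 °C, equilibrated to 25 °C, and viability read by CellTiter-Glo luminescence. Untreated and 2 μM puromycin-treated cells defined 100% and 0% viability; CC50, the concentration reducing viability by 50%, from non-linear regression.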

Row | Compound | Human Plasma T1/2 (2 μM) | Caco2 A to B [1] | Caco2 B to A [1] | half-life at 2 μM (in vitro [2]) | EC50 (RSV-Luc5) | EC50 (SARS-CoV2-NLuc) | CC50 (in vitro [3]) | Human Plasma T1/2
1 | CC(C)OC(=O)OC[C@H]1O[C@@](C#N)(c2ccc3c(N)ncnn23)[C@@H]2OC(=O)CCC=CCCC(=O)O[C@@H]21 [Compound C9, ((10aR,11R,13R,13aR)-13-(4-aminopyrrolo[2,1-f][1,2,4]triazin-7-yl)-13-cyano-2,9-dioxo-2,3,4,7,8,9,10a,11,13,13a-decahydrofuro[3,4-b][1,4]dioxacyclododecin-11-yl)methyl isopropyl carbonate] | 180 s | 18.29 | 17.94 | 39.3 s | 3050 nM | 27500 nM | > 50 µM | 
2 | CCOC(=O)OC[C@H]1O[C@@](C#N)(c2ccc3c(N)ncnn23)[C@@H]2OC(=O)CCCC(=O)O[C@@H]21 [Compound C12, ((7aR,8R,10R,10aR)-10-(4-aminopyrrolo[2,1-f][1,2,4]triazin-7-yl)-10-cyano-2,6-dioxooctahydro-2H-furo[3,4-b][1,4]dioxonin-8-yl)methyl ethyl carbonate] |  | 1.94 | 5.31 | 37.3 s | 7940 nM | 5880 nM | > 50 µM | 180 s
3 | COC(=O)OC[C@H]1O[C@@](C#N)(c2ccc3c(N)ncnn23)[C@@H]2OC(=O)CCCC(=O)O[C@@H]21 [Compound C13, ((7aR,8R,10R,10aR)-10-(4-aminopyrrolo[2,1-f][1,2,4]triazin-7-yl)-10-cyano-2,6-dioxooctahydro-2H-furo[3,4-b][1,4]dioxonin-8-yl)methyl methyl carbonate] | 180 s | 2.1 | 5.18 | 36.8 s | 30000 nM | 4100 nM | > 50 µM | 
4 | COC(C)(C)COC(=O)OC[C@H]1O[C@@](C#N)(c2ccc3c(N)ncnn23)[C@@H]2OC(=O)CCCC(=O)O[C@@H]21 [Compound C22, ((7aR,8R,10R,10aR)-10-(4-aminopyrrolo[2,1-f][1,2,4]triazin-7-yl)-10-cyano-2,6-dioxooctahydro-2H-furo[3,4-b][1,4]dioxonin-8-yl)methyl (2-methoxy-2-methylpropyl) carbonate] | 180 s | 0.88 | 3.46 | 34.1 s | 4850 nM | 5110 nM | > 50 µM | 
5 | N#C[C@@]1(c2ccc3c(N)ncnn23)O[C@H](COC(=O)OC2CCOC2)[C@H]2OC(=O)CCCC(=O)O[C@H]21 (stereo partly drawn) [Compound C23, ((7aR,8R,10R,10aR)-10-(4-aminopyrrolo[2,1-f][1,2,4]triazin-7-yl)-10-cyano-2,6-dioxooctahydro-2H-furo[3,4-b][1,4]dioxonin-8-yl)methyl (tetrahydrofuran-3-yl) carbonate] | 180 s | 0.66 | 4.38 | 34.1 s | 19900 nM | 18400 nM | > 50 µM | 
6 | CC(C)C(=O)OC[C@H]1O[C@@](C#N)(c2ccc3c(N)ncnn23)[C@@H]2OC(=O)CCCC(=O)O[C@@H]21 [Compound C54, ((7aR,8R,10R,10aR)-10-(4-aminopyrrolo[2,1-f][1,2,4]triazin-7-yl)-10-cyano-2,6-dioxooctahydro-2H-furo[3,4-b][1,4]dioxonin-8-yl)methyl isobutyrate] | 180 s | 1 | 2.98 | 35.3 s | 6040 nM | 7880 nM | > 50 µM | 
